Measurements: ChEMBL document CHEMBL1201862, “PubChem BioAssay data set” (2004)
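The compound was tested at five concentrations on cells cultured in 96-well plates, with a 48-hour exposure period. GI50: concentration for 50% inhibition of growth.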 Activity calls are given as the source filed them. No stated cut-off is given here; in the data, active = GI50 up to about 1.1 µM and inactive = higher.

Tests used:
Test in all cases: NCI-60 cell line screen, 48 h
[1] = test system: IGROV-1
[2] = test system: 786-0
[3] = test system: KM12
[4] = test system: K562
[5] = test system: SNB-75
[6] = test system: UACC-62
[7] = test system: CCRF-CEM
[8] = test system: RPMI-8226
[9] = test system: UACC-257
[10] = test system: SF-539
[11] = test system: SK-MEL-28
[12] = test system: HL-60
[13] = test system: OVCAR-5
[14] = test system: SF-295
[15] = test system: OVCAR-3
[16] = test system: OVCAR-8
[17] = test system: PC-3
[18] = test system: MDA-MB-231
[19] = test system: MDA-MB-435
[20] = test system: T47D

Measured: GI50

C[C@]12CC(C#N)C(=O)C(O)=C1CC[C@@H]1C2CC[C@@]2(C)C1CC[C@@H]2O (stereo not given in full)
inactive: [1] 12.2 µM | [2] 22.9 µM | [3] > 100 µM | [4] 46.9 µM | [5] 9.91 µM | [6] 3.99 µM | [7] 45.1 µM | [8] 7 µM | [9] 71.1 µM | [10] 46.1 µM | [11] 40.9 µM | [12] 13.8 µM | [13] 27.3 µM | [14] > 100 µM | [15] 65.5 µM | [16] > 100 µM

O=C1C=CC2(C=C1)CCC(=O)O2
inactive: [1] 10.8 µM | [2] 15 µM | [3] 15.3 µM | [4] 10.7 µM | [5] 19 µM | [17] 12.6 µM | [6] 16.5 µM | [7] 5.82 µM | [8] 5.89 µM | [9] 18.7 µM | [10] 12.2 µM | [11] 16 µM | [13] 22.7 µM | [14] 19.8 µM | [15] 13.2 µM | [18] 10.1 µM | [16] 16.2 µM | [19] 15.5 µM

c1cncc(C2c3[nH]c4ccccc4c3CCN2CCN2CCCCC2)c1 (stereo not given)
inactive: [1] > 100 µM | [2] > 100 µM | [3] > 100 µM | [4] 35.6 µM | [5] 43.6 µM | [6] > 100 µM | [7] 56.4 µM | [8] 62.8 µM | [9] 32.9 µM | [10] > 100 µM | [11] 46.7 µM | [12] 41.5 µM | [13] > 100 µM | [14] > 100 µM | [15] > 100 µM | [16] > 100 µM

O=C(CC(NC(=O)OCc1ccccc1)C(=O)NC1Cc2ccccc2C1=O)OCc1ccccc1 (stereo not given)
inactive: [1] > 100 µM | [2] > 100 µM | [3] > 100 µM | [4] > 100 µM | [5] 59.3 µM | [17] > 100 µM | [6] > 100 µM | [8] > 100 µM | [9] 86.5 µM | [10] > 100 µM | [11] > 100 µM | [13] > 100 µM | [14] > 100 µM | [15] > 100 µM | [16] > 100 µM | [19] > 100 µM

CCOC(=O)C(NC(=O)Nc1ccc(Cl)c(Cl)c1)C(F)(F)F (stereo not given)
inactive: [1] > 100 µM | [2] > 100 µM | [4] 92.5 µM | [5] > 100 µM | [17] > 100 µM | [7] > 100 µM | [8] > 100 µM | [9] > 100 µM | [10] > 100 µM | [11] > 100 µM | [20] > 100 µM | [12] > 100 µM | [13] > 100 µM | [16] > 100 µM | [19] 87.1 µM

N#CC(c1cc(Cl)ncn1)c1nc2cc(C(F)(F)F)ccc2s1 (stereo not given)
inactive: [1] 5.87 µM | [2] 3.3 µM | [3] 3.27 µM | [4] 6.92 µM | [5] 5.79 µM | [8] 3.78 µM | [9] 4.24 µM | [10] 4.63 µM | [11] 13 µM | [20] 4.29 µM | [13] 3.78 µM | [14] 7.33 µM | [15] 3.32 µM | [18] 4.31 µM | [16] 3.83 µM | [19] 4.31 µM

O=C(CCN1CCN(c2ccccc2)CC1)N1CCc2c([nH]c3ccccc23)C1c1cccnc1 (stereo not given)
inactive: [1] 39.7 µM | [2] 15.4 µM | [3] 18 µM | [4] 15.9 µM | [5] 28.8 µM | [6] > 10 µM | [7] 20.6 µM | [8] > 10 µM | [9] 15.9 µM | [10] 18.7 µM | [11] 15.7 µM | [12] 14.3 µM | [13] 16.9 µM | [14] > 10 µM | [15] 16.7 µM | [16] 16.6 µM

Cc1ccc(S(=O)(=O)Nn2c(S)c(C#N)c(-c3ccc([N+](=O)[O-])cc3)c(C#N)c2=O)cc1
inactive: [1] 19.4 µM | [2] 20 µM | [3] 31.6 µM | [4] 21.2 µM | [5] 56.5 µM | [17] 27.2 µM | [6] 25.8 µM | [7] 23.2 µM | [8] 16.4 µM | [9] 40.8 µM | [10] 16.7 µM | [11] 32.6 µM | [13] 72.9 µM | [14] 49.4 µM | [18] 17.7 µM | [16] 36.6 µM | [19] 23.2 µM

COc1ccc(/C(C)=N/NC(=O)c2ccncc2)c(OC)c1
inactive: [1] > 10 µM | [2] > 10 µM | [3] > 10 µM | [4] > 10 µM | [5] > 10 µM | [6] > 10 µM | [7] > 10 µM | [8] > 10 µM | [9] > 10 µM | [10] > 10 µM | [11] > 10 µM | [20] > 10 µM | [12] > 10 µM | [18] > 10 µM | [16] > 10 µM
